In patent publication US9126938B2, “Phosphatidylcholine transfer protein inhibitors” (The Brigham and Women's Hospital, Inc., priority 2009, dated 2015):

Tests used:
[1] = biological target: T1, purified recombinant His-tag PC-TP (Homo sapiens, UniProt Q9UKL6); assay: Surface plasmon resonance binding to immobilized PC-TP; conditions: Biacore 3000, CM5 chip, 150 s injection
T1 sequence (Q9UKL6 1-214): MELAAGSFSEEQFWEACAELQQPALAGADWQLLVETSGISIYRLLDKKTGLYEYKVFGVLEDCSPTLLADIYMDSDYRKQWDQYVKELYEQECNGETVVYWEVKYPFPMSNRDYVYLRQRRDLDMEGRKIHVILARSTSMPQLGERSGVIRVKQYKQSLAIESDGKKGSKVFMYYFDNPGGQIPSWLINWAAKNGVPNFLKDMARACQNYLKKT
Description: Compound 8 was injected into a Biacore 3000 surface plasmon resonance instrument with purified recombinant His-tag PC-TP immobilized to a carboxymethyl dextran 5 ([…]) chip for 150 s and allowed to dissociate. Each sensogram was overlaid and zeroed on the y-axis to the average baseline before injection. The start injection time for each sample was set to zero on the x-axis (see FIG. 2). The KD value was 5.0 μM.

StarD10 = biological target: T2, StarD10 (Homo sapiens, UniProt Q9Y365); assay: StarD10 inhibition assay; type: biochemical
T2 sequence (Q9Y365 1-291): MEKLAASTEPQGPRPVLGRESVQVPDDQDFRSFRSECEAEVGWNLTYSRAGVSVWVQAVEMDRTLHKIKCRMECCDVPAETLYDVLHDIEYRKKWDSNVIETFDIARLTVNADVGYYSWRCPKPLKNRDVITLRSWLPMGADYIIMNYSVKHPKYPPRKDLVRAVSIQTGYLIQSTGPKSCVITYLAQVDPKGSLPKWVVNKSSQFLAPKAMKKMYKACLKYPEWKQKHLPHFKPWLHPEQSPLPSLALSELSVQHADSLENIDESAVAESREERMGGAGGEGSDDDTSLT
Description: (§1) The compounds in Table 1 and 2 were assayed for their ability to inhibit PC-TP and StarD10, respectively, using a known assay method (see Wagle et al., 2008. Anal. Biochem. 383:85-92, which is incorporated herein by reference in its entirety). Further, certain compounds were also tested for their ability to inhibit StarD7 (see Table 2).

PC-TP = biological target: T3, PC-TP (Homo sapiens, UniProt Q9UKL6); assay: PC-TP inhibition assay (Wagle et al. method); type: biochemical; conditions: Table 1, concentration value
T3 sequence (Q9UKL6 1-214): T1 sequence (Q9UKL6 1-214)
Description: as §1

StarD7 = biological target: T4, StarD7 (Homo sapiens, UniProt Q9NQZ5); assay: StarD7 inhibition assay; type: biochemical
T4 sequence (Q9NQZ5 78-370): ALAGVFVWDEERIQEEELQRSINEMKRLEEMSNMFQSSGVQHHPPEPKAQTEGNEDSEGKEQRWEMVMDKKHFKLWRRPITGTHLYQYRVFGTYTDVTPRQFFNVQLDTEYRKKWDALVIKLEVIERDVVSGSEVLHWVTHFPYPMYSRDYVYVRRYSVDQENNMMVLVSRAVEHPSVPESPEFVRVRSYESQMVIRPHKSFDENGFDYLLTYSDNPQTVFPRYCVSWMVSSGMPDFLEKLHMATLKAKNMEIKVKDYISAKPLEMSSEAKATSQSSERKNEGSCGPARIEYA
Description: as §1

[2] = biological target: T5, purified recombinant PC-TP (Homo sapiens, UniProt Q9UKL6); assay: Displacement assay of PC-TP using pyrene-labeled PC; type: binding
T5 sequence (Q9UKL6 1-214): T1 sequence (Q9UKL6 1-214)
Description: Competition between the small molecule inhibitors and fluorescent pyrene-labeled phosphatidylcholine (PyrPC) for binding to PC-TP was measured using Pyr-PC fluorescent vesicles quenched with tetracyanoquinodimethane (TCNQ) (Lemmetyinen H. et al. 1989). Upon mixing of quenched Pyr-PC vesicles with purified recombinant PC-TP, the rise in Pyr-PC fluorescence reflects binding of fluorescently labeled phosphatidylcholine molecules to the active site of PC-TP. If the small molecule inhibitors enter the active site and prevent binding of phosphatidylcholine to PC-TP by competing the Pyr-PC, this should reduce the observed increase in Pyr-PC fluorescence.
The fluorescence of PyrPC monomer was measured at 392 nm on SpectraMax M5 plate-reader with excitation was set at 345 nm. Pyrene-labeled PC vesicles contained PyrPC, egg PC, and TCNQ in a molar ratio of 40:20:60. For PC and PyrPC competition assays, we used unlabeled PC vesicles composed of egg PC and TCNQ in a molar ratio of 55:45 or PC vesicles of varied lipid concentrations and PyrPC vesicles quenched with TCNQ (55:45). […] To determine the affinity of eggPC compared to PyrPC, we varied the concentration of egg PC in the assay as follows: 5, 11, 22, 27, 33, and 44 μM, and a fixed amount of PyrPC (44 μM). […] In the displacement assay, the increase in pyrene monomer fluorescence (ΔF) is proportional to the amount of [Pyr], pyrene-labeled PC bound to PC-TP. The maximal fluorescence increase (ΔFmax) at pyrene monomer emission peak (˜380-394 nm) is observed in the absence of inhibitor ([inh]=0) or unlabeled lipid ([PC]=0). The fluorescence reading of wells with PyrPC vesicles alone and Pyr-PC vesicles with inhibitor (highest background fluorescence) were used as control and subtracted as background.
As described in Van Paridon et al. 1987, by plotting ΔF as a function of ΔF·[inh]/[Pyr] […] Therefore, Krel (Compound 4/PC) can be calculated as Krel (Compound 4/PyrPC)/Krel (PC/PyrPC)=0.22.

[3] = test system: insulin signaling pathway in cultured primary human hepatocytes; assay: Activation of insulin signaling pathway in primary human hepatocytes (immunoblot); type: cell-based; conditions: serum starved hepatocytes, 60 minute exposure, doses of 0.05 and 0.10 μM, no insulin
Description: Cultured primary human hepatocytes (commercially obtained) were serum starved overnight followed by 60 minute exposure to A) Compound 4 or B) Compound 16 at the indicated concentrations. Inhibitors were dissolved in DMSO. Negative controls included Control (no additions) and DMSO alone. The positive control included DMSO plus insulin (50 nM) for 30 minutes. Cells were harvested and lysates were subjected to immunoblot analyses using antibodies, as indicated.

Row | Structure (SMILES) | Kd [1] [µM] | IC50 (StarD10) [µM] | IC50 (PC-TP) [µM] | IC50 (StarD7) [µM] | Krel (Compound 4/PC) ([2]; calculated as Krel (Compound 4/PyrPC)/Krel (PC/PyrPC)) | Effect on pyrene monomer fluorescence (Pyr-PC binding to PC-TP) ([2]; increasing inhibitor concentration) | Krel (Compound 4/PyrPC), relative affinity constant ([2]; inhibitor 5-75 μM, PyrPC 36 μM, PC-TP 300 nM, averaged from multiple experiments) | Activation of insulin signaling [3]
1 | Cc1cc(C)nc(NS(=O)(=O)c2cccc(NC(=O)NC(=O)c3ccc(Cl)cc3Cl)c2)n1 [Compound 8, 2,4-dichloro-N-(3-(N-(4,6-dimethylpyrimidin-2-yl)sulfamoyl)phenylcarbamoyl) benzamide] | 5 | 14 | 6.5 | – | – | – | – | –
2 | Cc1cc(C)nc(NS(=O)(=O)c2ccc(NC(=O)NC(=O)c3ccc(Cl)cc3Cl)cc2)n1 [Compound 4, 2,4-dichloro-N-(4-(N-(4,6-dimethylpynmidin-2-yl)sulfamoyl)phenylcarbamoyl) benzamide] | – | 12 | 4.1 | 63 | 0.22 | diminishing fluorescence of pyrene monomer | 1.1+/−0.36 | activated insulin signaling
